Experimental data published in PMC10714390, “Quinoline Compounds Targeting the c-Ring of ATP Synthase Inhibit Drug-Resistant Pseudomonas aeruginosa” (ACS Infectious Diseases, 2023).
Where “and” joins values, the source holds several entries; their conditions need not be identical. Identical values can stand only once.

Legend:
E. coli (ATCC 25922) = experiment: Antimicrobial susceptibility (broth microdilution), EC 25922; format: cell-based, Escherichia coli; conditions: for MIC: Escherichia coli, ATCC25922, read-out: antibacterial activity (MIC) EC 25922; for antibacterial activity in words, EC 25922: summary of Table 1
Experimental: (§1) The following are general steps, unless otherwise noted. All steps were completed using aseptic techniques. All media and glassware were sterilized via an autoclave at 121 °C for 60 min. All agitation occurred at 160 rpm in a temperature-controlled console shaker (Excella E25) at 37 °C. Full-strength tryptic soy broth (TSB) was made by dissolving 30 g of BD Bacto TSB powder in 1 L of deionized water. Purchased and acquired bacterial strains used were E. coli (ATCC 25922), P. aeruginosa (ATCC 9027), drug-resistant P. aeruginosa from ATCC Panel MP-23 (BAA 2108, BAA 2109, BAA 2110), and P. aeruginosa efflux knockout GKCW120 (PΔ6)[6] provided by Zgurskaya and co-workers at the University of Oklahoma.
(§2) Susceptibility testing was performed in biological triplicate using the broth microdilution method as outlined by the Clinical and Laboratory Standards Institute. […] Briefly, to each well, 1 μL of compound in DMSO, 89 μL of TSB, and 10 μL of bacterial inoculum, grown from a single colony in 10 mL of TSB for 4–6 h, were added. After incubation for 12–15 h at 37 °C, absorbance at 590 nm was read on a Biotek Synergy HTX Multimode plate reader. Data were processed by background subtracting the media absorbance and then normalizing the data to full bacterial growth with the vehicle only. MIC is defined as the lowest concentration of antibiotic or antibiotic/adjuvant combination that achieves ≥85% growth inhibition, which corresponds to no visible growth.
(§3) Initial antibacterial activity screen of compounds 4, 5, and S1-S6
(§4) Compounds 4, 5, and S1-S6 were screened for initial antibiotic activity against a susceptible laboratory strain of EC (designated EC 25922), and non-virulent, biofilm forming strain of PA (designated PA 9027), and PD6 (efflux knockout strain6) at 128 µg/mL in DMSO. Sterilization and Antimicrobial Susceptibility Assay procedures utilized were the same as described in the methods.
(§5) Table S1. Antibacterial activity screening results for compounds 4, 5, and S1-S6 at 128 µg/mL
(§6) Table S1. Antibacterial activity screening results for compounds 4, 5, and S1-S6 at 128 µg/mL.

[1] = system: P. aeruginosa (ATCC 9027); experiment: Antimicrobial susceptibility (broth microdilution), PA 9027; format: cell-based, Pseudomonas aeruginosa; conditions: for MIC: Pseudomonas aeruginosa, ATCC9027, read-out: antibacterial activity (MIC) PA 9027; for antibacterial activity in words, PA 9027: summary of Table 1
Experimental: as §1, §2, §3, §4, §5, §6

[2] = system: drug-resistant P. aeruginosa BAA 2108; experiment: Antimicrobial susceptibility (broth microdilution), BAA 2108; format: cell-based, Pseudomonas aeruginosa; conditions: for MIC: Pseudomonas aeruginosa, BAA2108, read-out: antibacterial activity (MIC) BAA 2108; for antibacterial activity in words, BAA 2108: summary of Table 1
Experimental: as §1, §2

[3] = system: drug-resistant P. aeruginosa BAA 2110; experiment: Antimicrobial susceptibility (broth microdilution), BAA 2110; format: cell-based, Pseudomonas aeruginosa; conditions: for MIC: Pseudomonas aeruginosa, BAA2110, read-out: antibacterial activity (MIC) BAA 2110
Experimental: as §1, §2

PA ATP synthase = target: T1, PA ATP synthase (Pseudomonas aeruginosa, UniProt Q9HT15); experiment: NADH-driven ATP synthesis inhibition, PA inverted membrane vesicles; format: biochemical; conditions: for Hill coefficient of dose response fit, PA vesicles: inhibition of ATP synthesis activity; for IC50: inverted membrane vesicles from PA 9027, NADH-driven, end point luminescence assay
T1 construct: Inverted membrane vesicles were prepared from PA 9027; endogenous in cells; host or cells: Pseudomonas aeruginosa ATCC 9027, inverted membrane vesicles
Experimental: Vesicles were prepared from P. aeruginosa and transformed E. coli cells as previously described.[22] Briefly, cells were grown in LB liquid medium at 37 °C with shaking and harvested by centrifugation after 7 h of growth. Cultures of transformant E. coli included 100 μg/mL ampicillin. Cells were disrupted in TMG buffer (50 mM Tris-HCl, MgCl2, 10% (v/v) glycerol, pH 7.5) using an Avestin B15 homogenizer at 19,000 psi. After unbroken cells and debris were cleared by centrifugation at 9000g, inverted vesicles were collected by centrifugation at 193,000g, resuspended in TMG buffer, and stored at −80 °C. Protein concentrations were determined using a modified Lowry assay.[25]
(§7) Continuous ATP synthesis activity of inverted membrane vesicles was measured using a luciferin/luciferase luminescence assay as previously described.[22] Inhibition of ATP synthesis activity by test compounds was determined using an end point assay essentially as previously described.[18],[26] In this assay, the synthesis reaction was initiated by 2.5 mM NADH, proceeded for 10 min, and was stopped with 1% trichloroacetic acid, 2 mM CCCP, and 10 mM EDTA. Samples from each reaction were diluted 500-fold prior to the addition of luciferase since quinoline compounds are known to inhibit luciferase.[27] This dilution was sufficient to minimize inhibition of luciferase (Figure S4). Each replicate set included a positive control containing DMSO with no compound and a negative control containing carbonyl cyanide m-chlorophenyl hydrazone. Luminescence values were corrected for the background by subtracting the negative control and then normalized to the positive control within the same replicate. Dose–response curves were fit using eq 1, where activity is the relative ATP synthesis activity, [I] is the concentration of inhibitor in μg/mL, and n is the Hill coefficient. [drawing 1] 1

luciferase = luciferase (Photinus pyralis, UniProt P08659); experiment: Inhibition of luciferase by quinoline compounds; format: biochemical; conditions: after 500-fold dilution; Figure S4
Chain of luciferase (P08659 whole entry): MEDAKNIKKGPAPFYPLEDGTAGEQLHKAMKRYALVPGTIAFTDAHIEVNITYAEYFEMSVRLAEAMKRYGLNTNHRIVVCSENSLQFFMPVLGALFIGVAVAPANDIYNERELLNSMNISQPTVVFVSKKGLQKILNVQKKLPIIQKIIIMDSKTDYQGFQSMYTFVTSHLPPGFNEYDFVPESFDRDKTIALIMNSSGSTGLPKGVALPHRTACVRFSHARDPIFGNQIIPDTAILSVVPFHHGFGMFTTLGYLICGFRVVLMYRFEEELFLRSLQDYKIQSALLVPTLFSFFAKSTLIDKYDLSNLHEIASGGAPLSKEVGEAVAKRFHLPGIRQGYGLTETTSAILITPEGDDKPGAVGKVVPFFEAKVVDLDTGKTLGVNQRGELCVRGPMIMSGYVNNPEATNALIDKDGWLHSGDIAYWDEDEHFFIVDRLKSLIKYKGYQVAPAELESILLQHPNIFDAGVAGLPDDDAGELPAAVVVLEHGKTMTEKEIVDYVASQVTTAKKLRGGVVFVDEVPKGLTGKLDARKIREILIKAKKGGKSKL
Experimental: as §7
Table S2: All IC50 values and Hill coefficients for dose response fits of inhibition of ATP synthesis activity. […]
luciferase) at the indicated concentrations, and luminescence was measured after the addition of ATP to […]

Compound | MIC (E. coli (ATCC 25922)) [µg/mL] | antibacterial activity in words, EC 25922 (E. coli (ATCC 25922)) | MIC [1] [µg/mL] | antibacterial activity in words, PA 9027 [1] | MIC [2] [µg/mL] | antibacterial activity in words, BAA 2108 [2] | MIC [3] [µg/mL] | Hill coefficient of dose response fit, PA vesicles (PA ATP synthase) | IC50 (PA ATP synthase) | inhibition of luciferase, in words (luciferase) | Antibacterial activity screening result, EC 25922 (E. coli (ATCC 25922); at 128 µg/mL in DMSO) | antibacterial activity in words, BAA 2110 ([3]; summary of Table 1)
CSc1nc2ccccc2cc1CNCc1ccc(CN(C)C)cc1 [Compound 4, N,N-Dimethyl-1-(4-((((2-(methylthio)quinolin-3-yl)methyl)amino)methyl)phenyl)methanamine] | 256 | weakly inhibit | > 256 | inactive | 128 to 256 | able to inhibit | > 256 | 0.8 | 31.3 µM and 31.6 µM | did not significantly inhibit |  | 
CN(C)Cc1ccc(CNCc2cc3ccccc3nc2SCc2ccccc2)cc1 [Compound 5, 1-(4-((((2-(Benzylthio)quinolin-3-yl)methyl)amino)methyl)phenyl)-N,N-dimethylmethanamine] | 64 | more potent | > 128 | inactive | 64 | more potent | > 128 | 0.8 | 1.64 µM | did not significantly inhibit | I | inactive
